# From US20100292200A1, “Methods for Modulating Apoptosis in Platelets” (The Walter and Eliza Hall Institute of Medical Research, priority 2006, published 2010)
# Entries after “also recorded” stand apart in the source; their conditions may differ.
# Columns and labels:
# serum TPO levels = test: Thrombopoietin analysis (serum TPO ELISA) in ABT-737 treated mice; type: in vivo, mouse; details: after ABT-737
# Procedure: Animals were bled 2-24 h afterwards and platelet counts determined. […] (B) Platelet recovery after a single dose of ABT-737. Platelet counts (blue symbols; left axis) were determined 2-96 h after a single dose of ABT-737 (red arrow). […] Orange symbols represent serum TPO levels (right axis). (C) Cyclical acute thrombocytopaenia triggered by ABT-737. Platelet counts were determined before and 8 h after a single dose of ABT-737 (red arrows) given at weekly intervals. […] During recovery, baseline counts drifted upwards. (D) ABT-737 acts selectively on aged platelets. […] (E) Synchronizing platelets. […] During recovery, the newly synthesized younger platelets are larger as indicated by the increased mean platelet volume (blue symbols; right axis). (F) Young platelets are resistant to ABT-737. Wild type C57BL/6 mice were treated with APS, and then injected with ABT-737 (red arrows) either 2 or 7 days afterwards. Absolute platelet counts and the % of reticulated platelets were measured. […]
# Blood was collected from the retroorbital sinus using a non-heparinized capillary tube into an eppendorf tube and incubated at room temperature for 2 h. […] Thrombopoietin levels were measured by enzyme-linked immunosorbent assay (ELISA) using the Quantikine Mouse TPO Immunoassay kit (R&D Systems) according to the manufacturer's instructions.
# mouse platelets = test: Ex vivo platelet assays, mouse platelets in culture (platelet counts, caspase immunoblotting); type: cell-based; details: ABT-737 1 μM
# Procedure: (A) Expression of Bcl-2 family proteins in platelets. […] (C) ABT-737 triggers caspase activation in platelets. […] (F) Absence of Bak protects platelets against ABT-737.
# Cell death was induced with ABT-737 (up to 5 μM, Abbott Laboratories (Oltersdorf et al., 2005 (supra)), etoposide (up to 100 μM, Pharmacia) or staurosporine (10 μM, Sigma); 50 μM qVD.OPh (Enzyme Systems) was also added in some experiments. Cell viability was determined by flow cytometry for cells that exclude propidium iodide or manual counting using a hemacytometer.
# Other antibodies for immunoblotting were mouse monoclonal anti-Bcl-xL (2H12; BD), anti-Bcl-2 (clone 7; BD), anti-human Bcl-2 (Bcl-2-100), anti-actin (AC40; Sigma), anti-Bax (2D2 and 5B7; Sigma), anti-Mcl-1 (clone 22: BD); rat monoclonal anti-Mcl-1 (14C11; D Huang, unpublished), rabbit polyclonal anti-Bak (B5897: Sigma), anti-Mcl-1 (Rockland), anti-caspase-3 (585; gift of Y. Lazebnik), anti-cleaved p17 fragment of caspase-3 (AB3623; Chemicon), anti-gelsolin (gift of D Kwiatkowski) (Kothakota et al., Science, 278:294-298, 1997); hamster monoclonal anti-mouse Bcl-2 (3F11; BD). Secondary antibodies included HRP-conjugated anti-rat or anti-hamster IgG (SouthernBiotech), anti-mouse or anti-rabbit IgG (Chemicon), and anti-mouse IgG Fcγ chain specific antibody (Jackson ImmunoResearch). The proteins were detected using Enhanced ChemiLuminescence (ECL; GE Healthcare).
# Platelets were counted manually in triplicate using a hemacytometer.
# Mcl-1 null MEF cells = test: Assay of Mcl-1 null MEF cells (rescue from ABT-737-induced killing, CellTitre-Blue viability); type: cell-based, mouse; details: Mcl-1^(-/-) MEFs
# Procedure: In summary, cells are split on day one in order to have them at a confluency of 60-80% on day two. On day two, the cells are seeded out into assay plates at a density that will ensure they are not confluent by day four of the assay. The assay plates are incubated at room temperature for 20-60 minutes before being transferred to 37° C. so that edge effects are minimized. For the same reason, assay plates are never stacked on top of each other in the incubator. On day three the cells are treated first with either Q-VD or with WEHI library compound. The cells are incubated for a 2 hour period in the presence of the library compounds and are then treated with ABT-737. […] After four hours the level of resorufin is measured.
# The protocol for day one was repeated up to the point where the cells were pelleted and the supernatant aspirated off. […] The cells were vortexed and then counted using a haemocytometer. The dilution necessary to achieve a density of 2×10^4 cells ml^−1 (1000 cells per well per 50 μl media) in the required volume was calculated and the dilution performed in 1% FCS FMA. […]
# CellTitre-Blue™ was warmed to 37° C. and 10 μl was then added to each well of the assay plates using the Multidrop. The plates were returned to 37° C. for 4 hours before being loaded into the EnVision plate reader. […]
# [1] = system: tumor cell lines derived from small cell lung cancers or lymphomas; details: small cell lung cancer or lymphoma derived lines; Oltersdorf et al., 2005; cited from earlier work
# human platelets = details: 1 μM for 1 or 2 h
# Procedure: Human whole blood was obtained with informed consent (approved by the Institutional Review Board), Platelet rich plasma was obtained and incubated at room temperature with drug or control for up to 2 h. Platelets were counted manually in triplicate using a hemacytometer.
# [2] = mouse, in vivo; cited from earlier work
smiles,measurement,setting,value
CN(C)CC[C@H](CSc1ccccc1)Nc1ccc(S(=O)(=O)NC(=O)c2ccc(N3CCN(Cc4ccccc4-c4ccc(Cl)cc4)CC3)cc2)cc1[N+](=O)[O-] [ABT-737],TPO levels in ABT-737 treated mice,serum TPO levels,"sustained production; also recorded: normal, or probably even elevated"
same,loss of wild type platelets in culture,mouse platelets; counted after 1 h,Bak-mediated caspase-dependent loss of platelets
same,caspase-3 activation and gelsolin cleavage in cultured platelets,mouse platelets; immunoblotting,triggered cleavage and full activation of caspase-3 as well as cleavage of gelsolin; also recorded: induced complete caspase-3 activation and gelsolin cleavage
same,action of ABT-737 on viability of Bak^-/- platelets in culture,"mouse platelets; Bak^-/- vs wild type platelets, 1 h",markedly blunted
same,induction of apoptosis in Mcl-1^(-/-) cells,Mcl-1 null MEF cells,Apoptosis is induced
same,efficacy against tumor cell lines,[1],single agent efficacy
same,susceptibility of human platelets to ABT-737,human platelets,caspase-dependent susceptibility
same,tolerability in mice,[2],well-tolerated
